US20250197437A1, “CANNABINOID COMPLEXES WITH IMPROVED PROPERTIES” (KEMIJSKI INŠTITUT, priority 2022, published 2025)
Where two headings read alike, the source gives them in different places.

Experiment: Water solubility test of cannabinoid:glucosamine complexes and pure cannabinoids (HPLC of supernatant)
Format: physicochemical
Details: thermodynamic from solid
Protocol: If considered necessary, sonication can also be applied. Afterwards, the solution is centrifuged at 3.000 g for 3 minutes and the supernatant is transferred to a HPLC vial. Concentration of dissolved cannabinoids is determined by analysis on an Agilent 1260 Infinity (Santa Clara, CA, USA) HPLC system. The chromatographic method is adapted from the literature (Križman, 2019). In short, the separation is performed on a Phenomenex (Torrance, CA, USA) Luna C18 (2) (octadecyl silica) chromatographic column, with dimensions 150 mm×3 mm i.d., 3 μm particle size, and temperature set at 37° C. Mobile phase is isocratic consisting of water/acetonitrile with a ratio of 9:31 (v/v), with 0.1% formic acid (v/v) and 10 mM ammonium formate, at a flow rate of 0.8 mL/min and injection volume 5 μL. The UV detection wavelength is 275 nm. The concentration of cannabinoids is determined using an external standard method.
For water solubility studies, 1-1.5 mg of the prepared complex was mixed with 1 mL of distilled water and stirred for 5-10 min, if necessary also sonication was applied. Afterwards the solution was centrifuged at 3.000 g for 3 minutes and the supernatant was transferred to the vials. Concentration of dissolved cannabinoids was determined by HPLC-DAD system (Agilent 1260 Infinity, Santa Clara, CA, USA).

[1] = 1-1.5 mg sample in 1 mL distilled water, stirred 5-10 min, centrifuged, HPLC, printed as greater-than/less-than bounds, read-out: Water solubility of cannabinoid

CCCCCc1cc(O)c(C/C=C(\C)CCC=C(C)C)c(O)c1 [CBG, cannabigerol]
solubility (water): < 1 µg/mL

C=C(C)[C@@H]1CCC(C)=C[C@H]1c1c(O)cc(CCCCC)cc1O [CBD, cannabidiol]
solubility [1]: < 1 µg/mL

C=C(C)[C@@H]1CCC(C)=C[C@H]1c1c(O)cc(CCCCC)c(C(=O)O)c1O [CBDA, cannabidiolic acid]
solubility [1]: < 2 µg/mL
